Assay results taken from patent US11840525B2, “Use of AURKB small-molecule inhibitors for treatment of non-small cell lung cancer” (Nanjing China-Australia Institute of Translational Medicine …, priority 2016, dated 2023).

How the values were obtained:
MCF-7 = experiment: Growth inhibition of tumor cells, MCF-7; format: cell-based; details: Homo sapiens, MCF7; read-out: IC50 against tumor cells, MCF-7
Description: Lung cancer cells A549 were separated into a 96-well plate and respectively added with 10 mM TZ47 stock solution to final concentrations of 0 μM, 0.1 μM, 0.5 μM, 1 μM, 2 μM, 4 μM and 8 μM in respective wells. Then the 96-well plate was incubated at 37° C. for 48 h and the growth of the cells was analyzed by a CCK-8 method. […] It can be seen from Table 1 that TZ47 also plays a desirable role in inhibiting the growth of other cancer cells including colorectal cancer, leukemia, liver cancer, melanoma, breast cancer and ovarian cancer.

[1] = tested on: H3S10 phosphorylation in A549 cells; experiment: Western blot of histone modifications in A549 cells; format: cell-based
gene E2F2 in A549 cells = experiment: E2F2 expression in A549 cells (real-time quantitative PCR, Western blot); format: cell-based
A549 cells [2] = experiment: Apoptosis of A549 cells by flow cytometry; format: cell-based; details: flow cytometer
Description: To elucidate how TZ47 induced the cell death, a flow cytometer was applied to measure and analyze the apoptosis of cells in solvent (DMSO) control group and the treatment groups with different gradients of TZ47 in the use of a cell apoptosis detection kit.

A549 cells [3] = experiment: Autophagy of A549 cells (LC3 western blot); format: cell-based; details: increasing concentration of TZ47
A549 xenograft = experiment: A549 heterotopic xenograft in nude mice; format: in vivo; details: 150 mg/kg
Description: The lung-cancer mouse model was constructed to test the effect of TZ47 on tumor proliferation in vivo. First, A549 cells were inoculated into the mice at the left axilla. When the tumor was proliferated to 100 mm^3, the mice were treated with TZ47 (150 mg/kg), and the weight, tumor volume and diet were observed and recorded. In the sixth week, the mice were anesthetized, and the tumors were photographed and recorded. […] The mice were quickly sacrificed through the dislocation of cervical vertebra, and the solid tumor was collected and weighed.
Next, part of the solid tumor was extracted for the immunohistochemistry assay. […] The solid tumor protein was lysed and analyzed by western blot assay.

AURKB = AURKB (Homo sapiens, UniProt Q96GD4); experiment: Microscale thermophoresis (MST) binding to AURKB protein; parameters: made in house; host or cells: E. coli BL21; details: prokaryotically expressed GST-AURKB, read-out: dissociation constant of binding to AURKB protein
Description: Thus, it is speculated that the treatment affected the activity of a kinase which was able to phosphorylate the H3S10. The following procedures were conducted to verify whether TZ47 inhibited the activity of AURKB directly. First, prokaryotic expression of AURKB protein and purification were performed and then a microscale thermophoresis (MST) was used to detect the binding between TZ47 and AURKB protein by testing the change of microscale thermophoresis caused by the hydrated layer (generally derived from the change of the structure/conformation of biomolecules) based on the directional movement of particles in a microscopic temperature gradient. […] Flag-tagged AURKB protein was then enriched by M2-flag beads (anti-Flag antibody conjugated) from the lysed liquid of 293T cells and used in the in-vitro kinase activity analysis. It can be seen from FIGS. 6A-6B that the Flag-AURKB protein had kinase activity and can phosphorylate histone H3.
The cDNA of 293T cells of human was used as the template to amplify the AURKB CDS sequence in the presence of LATaq enzyme. […]
1 mL of the eluent was added to the EP tube containing GST beads, rotated at 4° C. for 30 min and centrifuged at 3,000 rpm for 3 min. […] An appropriate amount of the combined supernatant was subjected to SDS-PAGE for the determination of elution efficiency and protein purity and quantity. • b. […]

Chain of AURKB (Q96GD4 1-345 isoform Q96GD4-5): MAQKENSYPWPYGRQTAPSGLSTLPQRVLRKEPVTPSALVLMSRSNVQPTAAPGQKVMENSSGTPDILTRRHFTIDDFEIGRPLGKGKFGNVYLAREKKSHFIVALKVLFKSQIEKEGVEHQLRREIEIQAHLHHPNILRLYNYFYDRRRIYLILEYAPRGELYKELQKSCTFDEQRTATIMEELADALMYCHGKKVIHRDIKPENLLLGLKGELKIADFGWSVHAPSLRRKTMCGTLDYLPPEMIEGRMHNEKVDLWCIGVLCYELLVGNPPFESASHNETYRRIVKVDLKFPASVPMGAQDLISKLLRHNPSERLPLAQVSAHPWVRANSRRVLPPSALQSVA

IC50 (MCF-7): 1.87 ± 0.15 µM
behavior, diet and weight of the mice versus control group (A549 xenograft): no significant difference
Kd (AURKB): 0.135 ± 0.002 µM
Compound: c1ccc2c(Cc3[nH]c4ccccc4c3Cc3c[nH]c4ccccc34)c[nH]c2c1 [TZ47]
degradation of AURKB protein in A549 cells ([1]; 48 h): did not mediate the degradation
labeling of other histone residues close to H3S10 ([1]; A549 cells): failed to affect
phosphorylation level of H3S10 in A549 cells ([1]; different concentrations, 48 h): significantly reduced
E2F2 protein level (gene E2F2 in A549 cells; Western blot): reduced
expression level of gene E2F2 (mRNA) (gene E2F2 in A549 cells; real-time quantitative PCR): significantly reduced
apoptosis, 1 μM and 2 μM treatment groups (A549 cells [2]; 1 μM and 2 μM): no significant difference
proportion of early apoptotic cells (A549 cells [2]; 4 μM): significantly increased
degree of cell autophagy (A549 cells [3]): increased significantly
HE staining of solid tumor (A549 xenograft; also verified with Ki-67): large quantity of necrotic tissues
tumor volume versus solvent control group (A549 xenograft; sixth week): significantly smaller
solid tumor weight (tumor growth in vivo) (A549 xenograft; tumor collected and weighed): significant activity in inhibiting the tumor growth
expression level of AURKB protein in solid tumor (A549 xenograft; western blot of tumor): did not affect
H3S10 ph modification level in solid tumor (A549 xenograft; western blot of tumor, P<0.05): significantly reduced
